Blank lines part the entries; values can stand above or below the compound they belong to. Activity calls are given as the source filed them. The calls are words filed in the database; no cut-off is given here.
How the values were obtained:
Rattus norvegicus [1] = assay: Hypoglycemic activity in STZ-nicotinamide-induced Wistar rat diabetic model at 5 mg/kg, po after 1 to 7 hrs; type: functional, organism-based; design: dose 5 mg/kg
Rattus norvegicus [2] = organism: Rattus norvegicus; assay: Hypoglycemic activity in STZ-nicotinamide-induced Wistar rat diabetic model after 1 to 7 hrs; type: functional, organism-based
[3] = target: 11-beta-hydroxysteroid dehydrogenase 1 (Homo sapiens) (UniProt P28845); assay: Inhibition of full-length human 11beta-HSD1 expressed in HEK293 cells at 10 uM after 2 hrs by scintillation proximity assay relative to control; type: cell-based
11-beta-hydroxysteroid dehydrogenase 1 (Homo sapiens), sequence (P28845 whole entry, looked up): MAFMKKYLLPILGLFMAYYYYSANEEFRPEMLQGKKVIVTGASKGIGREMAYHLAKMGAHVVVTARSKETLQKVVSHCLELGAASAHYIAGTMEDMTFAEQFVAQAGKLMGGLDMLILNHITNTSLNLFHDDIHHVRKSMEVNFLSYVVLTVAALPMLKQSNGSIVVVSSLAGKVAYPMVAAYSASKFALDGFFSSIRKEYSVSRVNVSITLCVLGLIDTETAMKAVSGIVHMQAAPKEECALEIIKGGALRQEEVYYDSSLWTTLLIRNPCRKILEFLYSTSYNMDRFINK

Rattus norvegicus [4] = assay: Hypoglycemic activity in STZ-nicotinamide-induced Wistar rat diabetic model at 50 mg/kg, ig after 1 to 7 hrs relative to control; type: functional; details: route intragastric
[5] = target: 11-beta-hydroxysteroid dehydrogenase 1 (Homo sapiens) (UniProt P28845); assay: Inhibition of full-length human 11beta-HSD1 expressed in HEK293 cells at 10 uM after 2 hrs by scintillation proximity assay relative to clofibric acid; type: cell-based
[6] = target: 11-beta-hydroxysteroid dehydrogenase 1 (Homo sapiens) (UniProt P28845); assay: Inhibition of full-length human 11beta-HSD1 expressed in HEK293 cells at 10 uM after 2 hrs by scintillation proximity assay relative to clofibrate; type: cell-based

Compound: COc1ccc(Cl)cc1C(=O)NCCc1ccc(S(=O)(=O)NC(=O)NC2CCCCC2)cc1
Activity (Rattus norvegicus [1]): Active

Compound: CC1(C)[C@@H](OC(=O)CCC(=O)O)CC[C@]2(C)[C@H]3C(=O)C=C4[C@@H]5C[C@@](C)(C(=O)O)CC[C@]5(C)CC[C@@]4(C)[C@]3(C)CC[C@@H]12
inhibition [3]: 78.3%

The next lines start with results.

inhibition [3]: 19.1%
Compound: CC(C)(Oc1ccc(Cl)cc1)C(=O)O
Activity (Rattus norvegicus [2]): inactive

fold change (FC) [5]: 2.5
inhibition [3]: 51.2%
fold change (FC) [6]: 2.5
Compound: CC(C)(Oc1ccc(Cl)cc1)C(=O)Nc1nnn[nH]1
Activity (Rattus norvegicus [4]): 16%

inhibition [3]: 18.1%
Compound: CCOC(=O)C(C)(C)Oc1ccc(Cl)cc1
